Values of other authors, collected in patent US6617356B2, “Gel system for oral and topical administration of water insoluble and/or water intolerant drugs and supplements” (priority 2000, dated 2003).

Settings: oral, 20 grams creatine monohydrate per day for five days

## CN(CC(=O)O)C(=N)N.O [creatine monohydrate]
  Muscle total creatine concentration: increase
  Peak and total work production: cumulative increase
